Holding throughout (assay type): biochemical
Assay [1] addresses T1, TbSTT3A (Trypanosoma brucei, UniProt Q57W34).
T1 sequence (Q57W34 1-801): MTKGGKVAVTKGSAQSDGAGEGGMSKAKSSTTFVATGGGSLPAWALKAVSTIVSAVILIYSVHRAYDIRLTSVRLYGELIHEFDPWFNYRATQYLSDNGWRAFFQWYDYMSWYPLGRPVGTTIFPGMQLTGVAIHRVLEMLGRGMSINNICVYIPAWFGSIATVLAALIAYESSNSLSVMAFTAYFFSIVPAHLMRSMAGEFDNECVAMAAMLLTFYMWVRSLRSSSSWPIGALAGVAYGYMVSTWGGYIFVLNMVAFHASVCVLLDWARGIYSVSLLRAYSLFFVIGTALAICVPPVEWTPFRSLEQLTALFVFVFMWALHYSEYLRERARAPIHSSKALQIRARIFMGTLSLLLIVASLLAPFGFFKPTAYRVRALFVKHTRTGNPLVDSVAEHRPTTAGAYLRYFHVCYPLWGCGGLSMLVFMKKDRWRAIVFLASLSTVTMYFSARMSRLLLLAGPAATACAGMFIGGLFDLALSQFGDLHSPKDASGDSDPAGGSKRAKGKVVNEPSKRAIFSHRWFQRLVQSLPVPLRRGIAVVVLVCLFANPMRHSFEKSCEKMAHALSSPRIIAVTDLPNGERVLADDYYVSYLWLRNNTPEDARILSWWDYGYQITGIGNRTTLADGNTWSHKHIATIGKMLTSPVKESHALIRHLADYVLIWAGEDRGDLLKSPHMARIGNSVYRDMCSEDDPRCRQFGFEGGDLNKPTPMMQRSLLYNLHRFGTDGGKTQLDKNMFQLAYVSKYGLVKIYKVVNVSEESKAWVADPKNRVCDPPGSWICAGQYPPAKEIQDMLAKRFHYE
Put plainly: Michaelis-Menten kinetics of the LLO analogs. To be noted: for kcat (LLO analog): 20 nM TbSTT3A, 10 µM acceptor peptide, varying LLO analog concentration. As for the experimental part: Fig. 3. (A) Structure of the LLO analogs synthesized (1a) (S)-Citronellyl-PP-Chitobiose, C10; (1b) farnesyl-PP-chitobiose, C15; (1c) (S)-NerylCitronellyl-PP-chitobiose, C20; (1d) (S)-farnesylCitronellyl-PP-chitobiose, C25. (B) Kinetic analysis of synthetic LLO analogs. Glycosylation experiments were performed with 20 nM purified TbSTT3A, 10 µM […], 10 mM MnCl2, 150 mM NaCl, 20 mM Hepes pH 7.5, 0.035% DDM, 0.007% CHS and different concentrations of synthetic LLO analogs. Data points reflect the mean of 3 separate measurements. Error bars indicate standard deviations. Data were fitted by nonlinear regression according to the Michaelis–Menten formula using PRISM software. This figure is available in black and white in print and in color at Glycobiology online.
For Michaelis–Menten kinetics of the LLO analogs, reaction mixtures containing 20 nM TbSTT3A protein, 10 µM peptide P11, 10 mM MnCl2, 150 mM NaCl, 20 mM Hepes pH 7.5, 0.035% DDM and 0.007% CHS were incubated with different concentrations of LLO analogs (10–900 µM, for 1a; 2–60 µM, for 1b; 1–50 µM, for 1c and 1–20 µM, for 1d). Samples were taken at different time points and turnover rates of the reactions were determined as before. Data were fitted by nonlinear regression according to the Michaelis–Menten formula using PRISM software.

Assay [2] deals with T1, TbSTT3A. The assay can be described thus: In vitro glycosylation assay, turnover rate of acceptor peptides (Tricine SDS-PAGE fluorescence). As to the method:
(§1) Fig. 2. Optimization of the acceptor peptide sequence. (A) Synthetic acceptor peptides are shown in single letter code. The acceptor asparagine (zero position of the sequon) is indicated in red. Glycosylation experiments were performed and the fluorescently labeled substrate (G0) and product (G1) were quantified following Tricine SDS-PAGE analysis. (B) Turnover rates after fitting the time points by linear regression using PRISM. Error bars indicate standard error of the fitting. (C) Kinetic analysis of substrate peptides: glycosylation experiments were performed with 20 nM purified TbSTT3A, 50 µM farnesyl-PP-chitobiose, 10 mM MnCl2, 150 mM NaCl, 20 mM Hepes pH 7.5, 0.035% DDM, 0.007% CHS and different concentrations of peptides varying from 2 to 60 µM. Data points reflect the mean of three separate measurements. Error bars indicate standard deviations. Data were fitted by nonlinear regression according to the Michaelis–Menten formula using PRISM. This figure is available in black and white in print and in color at Glycobiology online.
Reaction mixtures contained 20 nM purified TbSTT3A protein, 50µM farnesyl-PP-GlcNAc or farnesyl-PP-chitobiose, 10 mM MnCl2, 150 mM NaCl, 20 mM Hepes pH 7.5, 0.035% DDM, 0.007% CHS and 20 µM of the peptide. Reactions were incubated at 30°C. Samples were taken at different time points and reactions were stopped by the addition of 4X SDS Laemmli buffer. Samples were diluted 200-fold prior to analysis by Tricine SDS-PAGE consisting of a 16% resolving gel with 6 M urea, a 10% spacer gel and a 4% stacking gel ([Schägger 2006]). Fluorescent bands for peptide and glycopeptide were visualized by using a Typhoon Trio Plus imager (GE Healthcare) with excitation set at 488 nm and using a 526 nm SP emission filter. The amount of formed glycopeptide was determined from band intensities of fluorescence gel scans (ImageJ) ([Gerber et al. 2013]). Turnover rate determination was performed by fitting of the data to linear regression using PRISM software.
Supplementary Figure 2: Glycosylation Assays with farnesyl-PP-GlcNAc. In vitro glycosylation experiments were performed with 20nM purified TbStt3A purified protein, 50µM Farnesyl-PP-GlcNAc or Farnesyl-PP-GlcNac2, 10 mM MnCl2, 150 mM NaCl, 20 mM Hepes pH 7.5, 0.035% DDM, 0.007% CHS and 10 µM of the peptide P1.

In assay [3] the target is T1, TbSTT3A. Put plainly: Michaelis-Menten kinetics of the peptides. Particulars: 20 nM TbSTT3A, 50 µM farnesyl-PP-chitobiose, peptide 2-60 µM, 30°C. As for the experimental part: as §1
For Michaelis–Menten kinetics of the peptides, reaction mixtures containing 20 nM TbSTT3A protein, 50 µM farnesyl-PP-chitobiose, 10 mM MnCl2, 150 mM NaCl, 20 mM Hepes pH 7.5, 0.035% DDM and 0.007% CHS were incubated with varying concentrations (2–60 µM) of peptides P11, P13 and P14. Samples were taken at different time points and the turnover rate of the reactions were determined as before. Data were fitted by nonlinear regression according to the Michaelis–Menten formula using PRISM software.

Assay [4] concerns the target T1, TbSTT3A. Put plainly: Inhibition analysis with LLO competitive inhibitors. Particulars: 20 nM TbSTT3A, 10 µM peptide P11, inhibitor 1-2500 µM preincubated 5 min, 15 µM farnesyl-PP-chitobiose 1b. As for the experimental part: Fig. 5. (A) Structure of the LLO inhibitors synthesized (34b) farnesyl-PP-C-chitobiose, C15; (34d) (S)-farnesylCitronellyl-PP-C-chitobiose, C25. (B) Kinetic analysis of synthetic LLO inhibitors. Glycosylation experiments were performed with 20 nM TbSTT3A protein, 10 µM peptide P11, 10 mM MnCl2, 150 mM NaCl, 20 mM Hepes pH 7.5, 0.035% DDM and 0.007% CHS. Samples were incubated with LLO competitive inhibitors (1–2500 µM) for 5 min before adding 15 µM of farnesyl-PP-chitobiose, 1b. Data points reflect the mean of three separate measurements. Error bars indicate standard deviations. Data were fitted by nonlinear regression using PRISM software. This figure is available in black and white in print and in color at Glycobiology online.
For inhibition analysis, reaction mixtures containing 20 nM TbSTT3A protein, 10 µM peptide P11, 10 mM MnCl2, 150 mM NaCl, 20 mM Hepes pH 7.5, 0.035% DDM and 0.007% CHS were incubated with different concentrations of LLO competitive inhibitors (1–2500 µM) for 5 min at 30°C. Reactions were started with addition of 15 µM of farnesyl-PP-chitobiose, 1b. Samples were taken at different time points and turnover rates of the reactions were determined as before. Data were fitted to nonlinear regression and IC50 was determined using PRISM software.

One may read the IC50 as the point on the concentration scale where inhibition reaches its midpoint. Low readings indicate greater potency, high ones weaker potency. For orientation: Km means the substrate concentration at which the rate is half of its maximum.

Marks after values point to notes of the source that are not given here. Ends that are not written are not given here. * marks the point of attachment. 5FAM = O=C1OC2(c3ccc(O)cc3Oc3cc(O)ccc32)c2ccc(C(=O)*)cc21

As to `CC(=O)N[C@H]1[C@@H](OP(=O)(O)OP(=O)(O)OCC[C@@H](C)CC/C=C(/C)CC/C=C(\C)CC/C=C(\C)CCC=C(C)C)O[C@H](CO)[C@@H](O[C@@H]2O[C@H](CO)[C@@H](O)[C@H](O)[C@H]2NC(C)=O)[C@@H]1O` [1d, P1-2-acetamido-O-(2-acetamido-2-deoxy-β-D-glucopyranosyl)-(1-4)-2-deoxy-α-D-glucopyranosyl P2-(S,6Z,10E,14E)-3,7,11,15,19-pentamethylicosa-6,10,14,18-tetraen-1-yl diphosphate], the “kcat (LLO analog)” value on TbSTT3A [1] stood at 16 ± 1 pep/min.

Turning to `CC(=O)NC1C(OC2C(CO)OC(OP(=O)(O)OP(=O)(O)OCCC(C)CCC=C(C)CCC=C(C)CCC=C(C)C)C(NC(C)=O)C2O)OC(CO)C(O)C1O` [1c, P1-2-acetamido-O-(2-acetamido-2-deoxy-β-D-glucopyranosyl)-(1-4)-2-deoxy-α-D-glucopyranosyl P2-(3S,6Z,10Z)-3,7,11,15-tetramethylhexadeca-6,10,14-trien-1-yl diphosphate], on TbSTT3A [1], the “kcat (LLO analog)” value is given as 23 ± 1 pep/min.

Turning to “5CF-GSDANYTY (5FAM-GSDANYTY) [P11, 5-carboxyfluorescein labeled acceptor peptide]”, the “Glycosylation of acceptor peptide (result in words)” value with TbSTT3A [2] (farnesyl-PP-chitobiose 1b donor) is “highest turnover rate”. For the same compound, the “kcat (substrate peptide)” value with TbSTT3A [3] is 37 ± 5^a pep/min.

On TbSTT3A [4], `CC(=O)N[C@@H]1[C@@H](O)[C@H](O[C@@H]2O[C@H](CO)[C@@H](O)[C@H](O)[C@H]2NC(C)=O)[C@@H](CO)O[C@@H]1CP(=O)(O)OP(=O)(O)OC/C=C(\C)CC/C=C(\C)CCC=C(C)C` [34b, (((2S,3R,4R,5S,6R)-3-acetamido-5-(((2S,3R,4R,5S,6R)-3-acetamido-4,5-dihydroxy-6-(hydroxymethyl)tetrahydro-2H-pyran-2-yl)oxy)-4-hydroxy-6-(hydroxymethyl)tetrahydro-2H-pyran-2-yl)methyl)phosphonic ((2E,6E)-3,7,11-trimethyldodeca-2,6,10-trien-1-ylphosphoric) anhydride] registered an IC50 of 167 ± 14 µM.

For the compound `CC(=O)N[C@H]1[C@@H](OP(=O)(O)OP(=O)(O)OC/C=C(\C)CC/C=C(\C)CCC=C(C)C)O[C@H](CO)[C@@H](O[C@@H]2O[C@H](CO)[C@@H](O)[C@H](O)[C@H]2NC(C)=O)[C@@H]1O` [1b, P1-2-acetamido-O-(2-acetamido-2-deoxy-β-D-glucopyranosyl)-(1-4)-2-deoxy-α-D-glucopyranosyl P2-(2E,6E)-3,7,11-Trimethyldodeca-2,6,10-trien-1-yl diphosphate], the “kcat (LLO analog)” value at TbSTT3A [1] was determined as 12 ± 1 pep/min. At TbSTT3A [1] (from KM values, Table II), the “Apparent affinity lower compared to 1d” value was 2 fold.

In the case of `CC(=O)N[C@@H]1[C@@H](O)[C@H](O[C@@H]2O[C@H](CO)[C@@H](O)[C@H](O)[C@H]2NC(C)=O)[C@@H](CO)O[C@@H]1CP(=O)(O)OP(=O)(O)OCC[C@@H](C)CC/C=C(/C)CC/C=C(\C)CC/C=C(\C)CCC=C(C)C` [34d, (((2S,3R,4R,5S,6R)-3-acetamido-5-(((2S,3R,4R,5S,6R)-3-acetamido-4,5-dihydroxy-6-(hydroxymethyl)tetrahydro-2H-pyran-2-yl)oxy)-4-hydroxy-6-(hydroxymethyl)tetrahydro-2H-pyran-2-yl)methyl)phosphonic ((S,6Z,10E,14E)-3,7,11,15,19-pentamethylicosa-6,10,14,18-tetraen-1-ylphosphoric) anhydride], on TbSTT3A [4], the IC50 was determined as 26 ± 3 µM.

In the case of “5CF-GSDANYTYTQ (5FAM-GSDANYTYTQ) [P14, 5-carboxyfluorescein labeled acceptor peptide, P11 elongated at the C-terminus]”, the “Increase in glycosylation turnover” value with TbSTT3A [2] (from the initial DANYTK to GSDANYTYTQ) is on record as “about 3 fold”. The “kcat (substrate peptide)” value with TbSTT3A [3] came to 28 ± 1 pep/min. Moreover, in the assay with TbSTT3A [3] (read-out: KM (substrate peptide)), the Km came to 28 ± 3 µM.

On to `CC(=O)N[C@H]1[C@@H](OP(=O)(O)OP(=O)(O)OCC[C@@H](C)CCC=C(C)C)O[C@H](CO)[C@@H](O[C@@H]2O[C@H](CO)[C@@H](O)[C@H](O)[C@H]2NC(C)=O)[C@@H]1O` [1a, P1-2-acetamido-O-(2-acetamido-2-deoxy-β-D-glucopyranosyl)-(1-4)-2-deoxy-α-D-glucopyranosyl P2-(S)-3,7-dimethyloct-6-en-1-yl diphosphate], for which, at TbSTT3A [1], the “kcat (LLO analog)” value worked out at 9.1 ± 0.5 pep/min.

The values above are taken from paper PMC5421464, “Characterization of the single-subunit oligosaccharyltransferase STT3A from Trypanosoma brucei using synthetic peptides and lipid-linked oligosaccharide analogs” (Glycobiology, 2017).
